{"source": "patent US9733237B2", "about": "“Methods for identifying candidates for the treatment of neurodegenerative diseases” (The Trustees of Columbia University in the City of New York, priority 2012, dated 2017)", "key": {"[1]": {"tested_on": "SOD1^G93A (ALS) and SOD1^WT mouse embryonic stem cell-derived motor neurons", "assay": "Two-color screen for agents preferentially toxic to ALS motor neurons (mixed WT/G93A ES-MN culture)", "assay_type": "cell-based", "conditions": "for Preferential activity on ALS motor neurons: independent pair of WT and G93A lines", "protocol": "GFP+ and RFP+ motor neurons were seeded in 96-well plates at equal proportions and imaged using a whole-well imaging platform (Plate Runner HD, Trophos, Marseilles, France). Live cells were scored with an automated image software (Metamorph, Molecular Devices, LLC, Sunnyvale, Calif.) using a neurite outgrowth criterion of five times the cell body diameter. Compounds from a small molecule library (Trophos) were loaded using automated liquid handling, and motor neuron survival was scored at 48 and 72 hours after exposure to stressors.\nA survival ratio was calculated by dividing surviving % red cells with green cells for each well (lower left panel). Compounds eliciting ratios greater than 1.6 were considered hits (highlighted in lower left panel).\nMultiple ES cell lines from SOD1^G93A mice that had been bred to a reporter strain expressing GFP under the motor neuron-specific Hb9 promoter were generated. ES cells from mice overexpressing wildtype human SOD1 (SOD1^WT) bred to mice expressing a new Hb9::RFP reporter (K. C. Kanning, unpublished) were used as controls. When differentiated in vitro using retinoic acid and an agonist of the sonic hedgehog pathway, these ES cells therefore generated green ALS motor neurons and red controls (FIG. 1A). By mixing these in equal numbers in culture, the response of ALS and control motor neurons to otherwise identical culture conditions could be quantified. This approach would reduce noise due to differences in individual culture wells, seeding density, position in incubator, etc., and that the ratio between numbers of WT and G93A cells would be a sensitive measure of selective vulnerability.\nUsing this assay miniaturized to a 96-well format, it was confirmed that after 3 days in either the presence or absence of a cocktail of neurotrophic factors, there was only a subtle decrease in ALS motor neuron survival relative to controls. An open-ended screen of the Tocriscreen Mini and Custom collection library of bioactive compounds was therefore performed to identify agents of known mechanism that could selectively induce death of ALS motor neurons. A total of 1,275 compounds were screened initially at a single concentration (10 μM), and those that were deemed too toxic were retested at 1 μM. […] Preferential activity on ALS motor neurons was subsequently confirmed for 4 of the hits using an independent pair of WT and G93A lines (FIG. 1B). The active compounds were: (a) capsaicin, an agonist of the […] receptor that is predominantly expressed on sensory neurons, (b) CPA (cyclopiazonic acid), which is an inhibitor of SERCA (sarco(endo)-plasmic reticulum Ca^++-ATPase) pumps, which sequester Ca^++ into the ER from the cytoplasm in an ATP-dependent manner (FIG. 2A), (c) DH97, a potent MT2 melatonin receptor antagonist, and (d) 2,3-DCPE, a compound that selectively induces apoptosis and downregulates Bcl-xL expression in human cancer vs. normal cells in vitro. The inventors focused on CPA because it induced the most robust change in the WT/G93A ratio (>3 in both combinations of ES lines) and because of the relevance of its mechanism of action to the alterations in Ca^++ handling that are characteristic of ALS motor neurons.\nWe first asked whether the actions of CPA were direct on motor neurons, or mediated by other cell types present in the mixed culture used for screening. […] Thus, degeneration induced by SERCA inhibition robustly differentiates between SOD1^G93A and SOD1^WT motor neurons. Neither thapsigargin nor CPA has gross effects on neuronal function. […] This provides further support for the notion that the selective effect of SERCA inhibitors on ALS motor neurons is a function of the disease.\nA library of small molecule compounds (Tocriscreen Mini & Custom collection, 1275 compounds, or other collections of novel compounds) will be added at a concentration of 10 μM using automated liquid handling. The compounds will be added to the wells following the 20 hour imaging time point. […]"}, "[2]": {"tested_on": "SOD1^G93A mice", "conditions": "in vivo; cited from earlier work"}, "[3]": {"tested_on": "ES-MNs (G93A and WT)", "assay": "Fura-2 calcium imaging of Ca++ release from ER stores", "assay_type": "cell-based, mouse", "conditions": "10 μM CPA, 20 minutes", "source_text": "To explore potential mechanisms underlying the ALS-selective toxicity of CPA, calcium imaging in ES-MNs loaded with the calcium indicator dye Fura-2 was used. In preliminary experiments, rise and fall constants following a 5-second pulse of kainic acid were monitored, and no significant difference between the G93A and WT lines were found (FIG. 2B). […] It was hypothesized that CPA might selectively induce an imbalance in Ca^++ handling. To monitor release of Ca^++ from endoplasmic reticulum (ER) stores, ES-MNs of each genotype were incubated for 20 minutes with 10 μM CPA. An initial rapid increase of Fura-2 signal was followed by a slow recovery, as Ca^++ was sequestered by other routes, out of which mitochondria may be the main compensatory compartment."}, "[4]": {"tested_on": "neurons of the pre-Botzinger complex", "conditions": "cited from earlier work"}}, "note": "Where two headings read alike, the source gives them in different places."}
{"compound": "OCCNCCCOc1cccc(Cl)c1Cl", "note": "[2,3-DCPE]", "values": [{"measurement": "Preferential activity on ALS motor neurons", "setting": "[1]", "result": "confirmed"}]}
{"compound": "O=C(/C=C/c1ccccc1)NC(NC(=S)Nc1cccc2cccnc12)C(Cl)(Cl)Cl", "note": "(centres unmarked) [Salubrinal]", "values": [{"measurement": "protection in SOD1^G93A mice", "setting": "[2]", "result": "protective"}]}
{"compound": "CCCCC(=O)NCCc1c(Cc2ccccc2)[nH]c2ccccc12", "note": "[DH97]", "values": [{"measurement": "Preferential activity on ALS motor neurons", "setting": "[1]", "result": "confirmed"}]}
{"compound": "CC(=O)C1=C(O)[C@@H]2[C@H]3c4c[nH]c5cccc(c45)C[C@H]3C(C)(C)N2C1=O", "note": "[CPA, cyclopiazonic acid]", "values": [{"measurement": "reduction in WT motor neurons numbers", "setting": "[1]; 7.5 μM, after 48 hours", "result": "40-50%"}, {"measurement": "survival ratio (red WT cells/green mutant cells)", "setting": "[1]; 7.5 μM, after 48 hours", "result": "1.6-1.75"}, {"measurement": "change in the WT/G93A ratio", "setting": "[1]; both combinations of ES lines", "result": "> 3"}, {"measurement": "G93A cells with greater initial Ca++ release", "setting": "[3]", "result": "about 40%"}, {"measurement": "effect on respiratory rhythm", "setting": "[4]; applied to neurons of the pre-Botzinger complex", "result": "do not affect respiratory rhythm"}]}
{"compound": "COc1cc(CNC(=O)CCCC/C=C/C(C)C)ccc1O", "note": "[capsaicin]", "values": [{"measurement": "Preferential activity on ALS motor neurons", "setting": "[1]", "result": "confirmed"}]}
{"compound": "C/C=C(/C)C(=O)O[C@H]1C(C)=C2[C@H]([C@@H]1OC(=O)CCCCCCC)[C@@](C)(OC(C)=O)C[C@H](OC(=O)CCC)[C@@]1(O)[C@H]2OC(=O)[C@@]1(C)O", "note": "[thapsigargin]", "values": [{"measurement": "death of ALS motor neurons relative to controls", "setting": "[1]; concentrations on the order of 1 nM", "result": "2- to 4 fold"}, {"measurement": "effect on respiratory rhythm", "setting": "[4]", "result": "do not affect respiratory rhythm"}]}
